The values that follow come from patent US20250340575A1, “4-AMINOPYRROLO[2,1-F][1,2,4]TRIAZINES AND PREPARATION AND USES THEREOF” (Biosplice Therapeutics, Inc., priority 2024, published 2025).

The target in the assay is recombinant DYRK1A kinase (Homo sapiens, UniProt Q13627). The assay is described as follows: DYRK1A kinase assay (Ser/Thr 18 peptide Z-lyte FRET). In kind it is biochemical. The settings on record: DYRK1A 0.25 μg/mL, ATP 15 μM, Ser/Thr peptide 18 4 μM, one hour at room temperature, 11-point dose-response from 10 μM. The protocol: Representative compounds were screened using the assay procedure for DYRK1A kinase activity as described below.
Each compound was dissolved in DMSO as a 10 mM stock and used to prepare compound source plates. Serial dilution (1:3, 11-point dose-response curves from 10 μM to 0.00016 μM) and compound transfer was performed using the ECHO 550 (Labcyte, Sunnyvale, CA) into 1536-well black-walled round bottom plates (Corning).
The DYRK1A kinase assay was run using the Ser/Thr 18 peptide Z-lyte assay kit according to manufacturer's instructions (Life Technologies—a Division of Thermo-Fisher). This is a non-radioactive assay using fluorescence resonance energy transfer (FRET) between coumarin and fluorescein to detect kinase activity which is represented as a ratio of coumarin emission/fluorescein emission.
Briefly, recombinant DYRK1A kinase, ATP and Ser/Thr peptide 18 were prepared in 1× Kinase buffer to final concentrations of 0.25 μg/mL, 15 μM, and 4 μM respectively. The mixture was allowed to incubate with the representative compounds for one hour at room temperature. All reactions were performed in duplicate. Unphosphorylated (“0% Control”) and phosphorylated (“100% control”) forms of Ser/Thr 18 served as control reactions. Additionally, an 11-point dose-response curve of Staurosporine (1 uM top) was run to serve as a positive compound control.
After incubation, Development Reagent A was diluted in Development Buffer then added to the reaction and allowed to further incubate for one hour at room temperature. The plate was read at Ex 400 Em 455 to detect the coumarin signal and Ex 400 Em 520 to measure the signal (EnVision Multilabel Plate Reader, PerkinElmer).
The Emission ratio (Em) was calculated as a ratio of the coumarin (C) emission signal (at 445 nm)/Fluorescein (F) emission signal (at 520 nm). The percent phosphorylation was then calculated using the following formula: [1−((Em ratio×F100%)−C100%)/((C0%−C100%)+(Em ratio×(F100%−F0%)))]. Dose-response curves were generated, and inhibitory concentration (IC50) values were calculated using non-linear regression curve fit in the Dotmatics' Studies Software (Bishops Stortford, UK).
Usually IC50 stands for the point on the concentration scale where inhibition reaches its midpoint. On to `CNc1nc(N[C@H]2CCN(C3COC3)C[C@H]2F)nn2ccc(-c3ccc4nc(C)n(CCF)c4n3)c12` [Compound 157, N^2-((3R,4S)-3-Fluoro-1-(oxetan-3-yl)piperidin-4-yl)-5-(3-(2-fluoroethyl)-2-methyl-3H-imidazo[4,5-b]pyridin-5-yl)-N^4-methylpyrrolo[2,1-f][1,2,4]triazine-2,4-diamine], for which the IC50 stood at 15.8 nM.

With `CNc1nc(N[C@@H]2CCN(C3COC3)CC2(F)F)nn2ccc(-c3ccc4nc(C)n(CCF)c4n3)c12` [Compound 160, (R)—N^2-(3,3-Difluoro-1-(oxetan-3-yl)piperidin-4-yl)-5-(3-(2-fluoroethyl)-2-methyl-3H-imidazo[4,5-b]pyridin-5-yl)-N^4-methylpyrrolo[2,1-f][1,2,4]triazine-2,4-diamine], the IC50 is 2.2 nM.

Consider `CNc1nc(N[C@H]2CC[C@](C)(O)CC2)nn2cc(F)c(-c3ccc4nc(C)n(CCF)c4n3)c12` [Compound 162, (1r,4r)-4-((6-Fluoro-5-(3-(2-fluoroethyl)-2-methyl-3H-imidazo[4,5-b]pyridin-5-yl)-4-(methylamino)pyrrolo[2,1-f][1,2,4]triazin-2-yl)amino)-1-methylcyclohexan-1-ol], for which the IC50 stood at 3.1 nM.

Take `CNc1nc(N[C@H]2CCN(C(C)=O)C[C@H]2F)nn2cc(F)c(-c3ccc4nc(C)n(CCF)c4n3)c12` [Compound 163, 1-((3R,4S)-3-Fluoro-4-((6-fluoro-5-(3-(2-fluoroethyl)-2-methyl-3H-imidazo [4,5-b]pyridin-5-yl)-4-(methylamino)pyrrolo[2,1-f][1,2,4]triazin-2-yl)amino)piperidin-1-yl)ethan-1-one]: the IC50 is 1.3 nM.

In the case of `CNc1nc(N[C@H]2CCN(C3COC3)C[C@H]2F)nn2cc(F)c(-c3ccc4nc(C)n(CCF)c4n3)c12` [Compound 164, 6-Fluoro-N^2-((3R,4S)-3-fluoro-1-(oxetan-3-yl)piperidin-4-yl)-5-(3-(2-fluoroethyl)-2-methyl-3H-imidazo[4,5-b]pyridin-5-yl)-N^4-methylpyrrolo[2,1-f][1,2,4]triazine-2,4-diamine], the concentration for half-maximal inhibition (IC50) came out at 1.8 nM.

`CNc1nc(N[C@@H]2CCN(C)CC2(F)F)nn2cc(F)c(-c3ccc4nc(C)n(CCF)c4n3)c12` [Compound 165, (R)—N^2-(3,3-Difluoro-1-methylpiperidin-4-yl)-6-fluoro-5-(3-(2-fluoroethyl)-2-methyl-3H-imidazo[4,5-b]pyridin-5-yl)-N^4-methylpyrrolo[2,1-f][1,2,4]triazine-2,4-diamine]: the IC50 was determined as 2.3 nM.

Turning to `CNc1nc(N[C@@H]2CCN(C(C)=O)CC2(F)F)nn2cc(F)c(-c3ccc4nc(C)n(CCF)c4n3)c12` [Compound 166, (R)-1-(3,3-Difluoro-4-((6-fluoro-5-(3-(2-fluoroethyl)-2-methyl-3H-imidazo [4,5-b]pyridin-5-yl)-4-(methylamino)pyrrolo[2,1-f][1,2,4]triazin-2-yl)amino)piperidin-1-yl)ethan-1-one], the IC50 was found to be 2.9 nM.

For the compound `CNc1nc(N[C@@H]2CCN(C3COC3)CC2(F)F)nn2cc(F)c(-c3ccc4nc(C)n(CCF)c4n3)c12` [Compound 168, (R)—N^2-(3,3-Difluoro-1-(oxetan-3-yl)piperidin-4-yl)-6-fluoro-5-(3-(2-fluoroethyl)-2-methyl-3H-imidazo[4,5-b]pyridin-5-yl)-N^4-methylpyrrolo[2,1-f][1,2,4]triazine-2,4-diamine], the IC50 amounted to 1.4 nM.

With `CNc1nc(N[C@H]2CCN(C(=O)CO)C[C@H]2F)nn2ccc(-c3ccc4nc(C)n(CC(F)F)c4n3)c12` [Compound 174, 1-((3R,4S)-4-((5-(3-(2,2-Difluoroethyl)-2-methyl-3H-imidazo[4,5-b]pyridin-5-yl)-4-(methylamino)pyrrolo[2,1-f][1,2,4]triazin-2-yl)amino)-3-fluoropiperidin-1-yl)-2-hydroxyethan-1-one], the IC50 is 2 nM.

Regarding `CNc1nc(N[C@@H]2CCN(C(=O)CO)CC2(F)F)nn2ccc(-c3ccc4nc(C)n(CC(F)F)c4n3)c12` [Compound 175, (R)-1-(4-((5-(3-(2,2-Difluoroethyl)-2-methyl-3H-imidazo[4,5-b]pyridin-5-yl)-4-(methylamino)pyrrolo[2,1-f][1,2,4]triazin-2-yl)amino)-3,3-difluoropiperidin-1-yl)-2-hydroxyethan-1-one], the IC50 came out at 1.3 nM.

For the compound `CNc1nc(N[C@@H]2CCN(C(C)=O)CC2(F)F)nn2cc(F)c(-c3ccc4nc(C)n(CC(F)F)c4n3)c12` [Compound 177, (R)-1-(4-((5-(3-(2,2-Difluoroethyl)-2-methyl-3H-imidazo[4,5-b]pyridin-5-yl)-6-fluoro-4-(methylamino)pyrrolo[2,1-f][1,2,4]triazin-2-yl)amino)-3,3-difluoropiperidin-1-yl)ethan-1-one], the IC50 was 1.5 nM.

Regarding `CCn1nnc2ccc(-c3c(F)cn4nc(N[C@H]5CCN(C6COC6)C[C@H]5F)nc(NC)c34)nc21` [Compound 214, 5-(3-Ethyl-3H-[1,2,3]triazolo[4,5-b]pyridin-5-yl)-6-fluoro-N^2-((3R,4S)-3-fluoro-1-(oxetan-3-yl)piperidin-4-yl)-N^4-methylpyrrolo[2,1-f][1,2,4]triazine-2,4-diamine], the IC50 stood at 4.9 nM.

For the compound `CCn1nnc2ccc(-c3c(F)cn4nc(N[C@@H]5CCN(C)CC5(F)F)nc(NC)c34)nc21` [Compound 215, (R)—N^2-(3,3-Difluoro-1-methylpiperidin-4-yl)-5-(3-ethyl-3H-[1,2,3]triazolo [4,5-b]pyridin-5-yl)-6-fluoro-N^4-methylpyrrolo[2,1-f][1,2,4]triazine-2,4-diamine], the IC50 is 2.3 nM.

For `CCn1nnc2ccc(-c3c(F)cn4nc(N[C@@H]5CCN(C(C)=O)CC5(F)F)nc(NC)c34)nc21` [Compound 216, (R)-1-(4-((5-(3-Ethyl-3H-[1,2,3]triazolo[4,5-b]pyridin-5-yl)-6-fluoro-4-(methylamino)pyrrolo[2,1-f][1,2,4]triazin-2-yl)amino)-3,3-difluoropiperidin-1-yl)ethan-1-one], the IC50 worked out at 2.6 nM.

In the case of `Nc1nc(N[C@H]2CCN(C3COC3)C[C@H]2F)nn2ccc(-c3ccc4nnn(CCF)c4n3)c12` [Compound 220, N^2-((3R,4S)-3-Fluoro-1-(oxetan-3-yl)piperidin-4-yl)-5-(3-(2-fluoroethyl)-3H-[1,2,3]triazolo[4,5-b]pyridin-5-yl)pyrrolo[2,1-f][1,2,4]triazine-2,4-diamine], the IC50 was determined as 5.2 nM.

Take `CN1CC[C@@H](Nc2nc(N)c3c(-c4ccc5nnn(CCF)c5n4)ccn3n2)C(F)(F)C1` [Compound 221, (R)—N^2-(3,3-Difluoro-1-methylpiperidin-4-yl)-5-(3-(2-fluoroethyl)-3H-[1,2,3]triazolo[4,5-b]pyridin-5-yl)pyrrolo[2,1-f][1,2,4]triazine-2,4-diamine]: the IC50 was determined as 2.8 nM.

On to `CC(=O)N1CC[C@@H](Nc2nc(N)c3c(-c4ccc5nnn(CCF)c5n4)ccn3n2)C(F)(F)C1` [Compound 222, (R)-1-(4-((4-Amino-5-(3-(2-fluoroethyl)-3H-[1,2,3]triazolo[4,5-b]pyridin-5-yl)pyrrolo[2,1-f][1,2,4]triazin-2-yl)amino)-3,3-difluoropiperidin-1-yl)ethan-1-one], for which the IC50 is 3.2 nM.

On to `CNc1nc(NC2CCC(F)(F)CC2)nn2ccc(-c3ccc4nnn(CCF)c4n3)c12` [Compound 233, N^2-(4,4-Difluorocyclohexyl)-5-(3-(2-fluoroethyl)-3H-[1,2,3]triazolo[4,5-b]pyridin-5-yl)-N^4-methylpyrrolo[2,1-f][1,2,4]triazine-2,4-diamine], for which the IC50 turned out to be 8.1 nM.

For the compound `CNc1nc(N[C@H]2CC[C@](C)(O)CC2)nn2ccc(-c3ccc4nnn(CCF)c4n3)c12` [Compound 234, (1r,4r)-4-((5-(3-(2-Fluoroethyl)-3H-[1,2,3]triazolo[4,5-b]pyridin-5-yl)-4-(methylamino)pyrrolo[2,1-f][1,2,4]triazin-2-yl)amino)-1-methylcyclohexan-1-ol], the 50% inhibitory concentration (IC50) was 0.8 nM.

As to `CNc1nc(N[C@H]2CCN(C(C)=O)C[C@H]2F)nn2ccc(-c3ccc4nnn(CCF)c4n3)c12` [Compound 235, 1-((3R,4S)-3-Fluoro-4-((5-(3-(2-fluoroethyl)-3H-[1,2,3]triazolo[4,5-b]pyridin-5-yl)-4-(methylamino)pyrrolo[2,1-f][1,2,4]triazin-2-yl)amino)piperidin-1-yl)ethan-1-one], the IC50 was found to be 2 nM.

Regarding `CNc1nc(N[C@H]2CCN(C3COC3)C[C@H]2F)nn2ccc(-c3ccc4nnn(CCF)c4n3)c12` [Compound 236, N^2-((3R,4S)-3-fluoro-1-(oxetan-3-yl)piperidin-4-yl)-5-(3-(2-fluoroethyl)-3H-[1,2,3]triazolo[4,5-b]pyridin-5-yl)-N^4-methylpyrrolo[2,1-f][1,2,4]triazine-2,4-diamine], the half-maximal inhibitory concentration (IC50) came out at 2.1 nM.
